From patent US20230372569A1 (priority 2020, published 2023)

How the values were obtained:
Candida albicans = experiment: Deactivation kinetics (Weibull model) with PAA, with and without UVC; assay type: cell-based
Source text: (§1) In most cases, especially for the PAA+UVC combination, they are nonlinear in coordinates log10[CFU]:-t. Formally it means that it was not a classical first-order reaction. The first-order model assumes that the cells and spores in a population have the same resistance and that the relationship between the decline in the number of survivors over the treatment time is linear. The model can be written as log10(N/N0)=−kt, where N0 is the initial number of cells (CFU/ml), N is the number of survivors after an exposure time t (CFU/ml), k is the rate parameter, and t is the treatment time (min). The D value, a typical index of inactivation kinetics, is the decimal reduction time in minutes (time required to kill 90% of the organisms).
(§2) The Weibull model assumes that the survival curve is a cumulative distribution of lethal effects. The cumulative form of the Weibull distribution is given by log10(N/N0)=[…], where b and n are the scale and shape parameters, respectively. When the shape parameter n is greater than or less than 1, the shape of the survival curve will present a shoulder or tailing, respectively. When n=1, the cumulative form of the Weibull distribution reduces to the first-order rate equation. For the Weibull model, the parameter td, which is analogous to the traditional D value, can be determined. td is the time required for d log reductions of the number of microorganisms and was calculated by the parameters b and n as shown in the equation
(§3) where d is the desired log reduction, b=k and 2.303 is coefficient due to the shift from base e logarithms to base 10 ones.

Staphylococcus aureus = experiment: as above; assay type: cell-based
Source text: as §1, §2, §3

Pseudomonas aeruginosa = experiment: as above; assay type: cell-based
Source text: as §1, §2, §3

Salmonella enterica = experiment: as above; assay type: cell-based
Source text: as §1, §2, §3

[1] = system: Clostridium difficile ATCC43539; experiment: Room decontamination test, inoculated dirty petri dishes (5% horse serum), two hours; assay type: cell-based; details: 5% w/w peracetic acid solution, 66 m^3 room
Description: A room of volume 66 m^3 (6 m×4.2 m (floor area)×2.6 m (height)) was used as a test room. The room was closed in the usual way, that a domestic, clinic or hospital room would be closed off by closing windows, doors and external vents and turning off any air-conditioning. However, the room was not hermetically sealed and a small amount of airflow was permissible. The temperature of the test room was ambient room temperature (between 20° C. and 25° C.).
A peracetic acid vapour/mist generator (nebulizer) was positioned along the smaller wall, at a height of about 1.21 m.
The peracetic acid vapour/mist generator utilised a commercially available 5% w/w peracetic acid solution. Peracetic acid is sold as an equilibrium mixture of hydrogen peroxide, acetic acid and water. 5% w/w Peracetic acid solution typically comprises 20-30% w/w hydrogen peroxide, 6-10% w/w acetic acid 4.5-5.4% w/w peracetic acid and the balance being water. In many embodiments of the present invention, the 5% w/w peracetic acid solution used comprised 24% w/w hydrogen peroxide, 7.5% w/w acetic acid 5% w/w peracetic acid and the balance being water.
The peracetic acid vapour/mist generator was also accompanied by a UV light that was located in the same housing. […] That is a known germicidal wavelength. The UV light shone upon all the exposed surfaces in the room. The UV lamp was 18 watts. The bulb used synthetic quartz to prevent escape of 185 nm ozone-forming radiation.
The UV-C light and peracetic acid vapour/mist generator could be operated independently or simultaneously, allowing for a direct comparison of the individual decontaminating agents with each other and with the combination.
Immediately before commencing sterilization, petri dishes containing inoculum were placed at three discrete locations within the room—one close to the UV/peracetic acid device (e.g. 80 cm from the device), one in the middle of the room and the other at the opposite end of the room. The dishes were also placed at differing heights. The petridishes were “dirty” and contained 5% horse serum. […] The number of microorganisms was counted. […]

[2] = acetic acid value given as TWA; cited from earlier work

Structure (SMILES)	D (decimal reduction time) (Candida albicans)	k (Weibull deactivation constant) (Candida albicans)	n (Weibull shape parameter) (Candida albicans)	D (decimal reduction time) (Staphylococcus aureus)	k (Weibull deactivation constant) (Staphylococcus aureus)	n (Weibull shape parameter) (Staphylococcus aureus)	D (decimal reduction time) (Pseudomonas aeruginosa)	k (Weibull deactivation constant) (Pseudomonas aeruginosa)	n (Weibull shape parameter) (Pseudomonas aeruginosa)	D (decimal reduction time) (Salmonella enterica)	k (Weibull deactivation constant) (Salmonella enterica)	n (Weibull shape parameter) (Salmonella enterica)	Log reduction, Location 1 ([1]; Location 1 (close to device))	Log reduction, Location 2 ([1]; Location 2 (middle of room))	Log reduction, Location 3 ([1]; Location 3 (opposite end of room))	vapour safety level [2]
CC(=O)OO [Peracetic Acid only, Peracetic acid]	37 min	0.45 h⁻¹	1.25	223 min	0.055 h⁻¹	1.13	168 min	0.052 h⁻¹	1.5	70 min	0.2 h⁻¹	1.24	Log 0.71 log	log 0.97	log 1.19	0.17 ppm
CC(=O)O [acetic acid]																10 ppm
